Tests used:
[1] = system: NCI-H2122; experiment: combination cScore with sotorasib (Bliss gap around IC50) (%PoC); higher = stronger additive effect
Method: (§1)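 Combination screen of 179 inhibitors with the KRAS G12C inhibitor sotorasib (AMG510) in dose matrices, CellTiter-Glo readout in NCI-H2122 (72 h), SW837 (144 h) and NCI-H358 cells. The cScore is the mean Bliss-independence gap (expected minus observed viability, in %PoC) over a 3x3 field around the IC50s of both drugs. Positive means additive, and >~10 is stated as clear additive.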

[2] = system: SW837; experiment: as above
Method: as §1

Row | SMILES | combination cScore with sotorasib [1] | combination cScore with sotorasib [2]
1 | CO[C@H]1/C=C/C[C@H](C)[C@@H](C)S(=O)(=O)NC(=O)c2ccc3c(c2)N(C[C@@H]2CC[C@H]21)C[C@@]1(CCCc2cc(Cl)ccc21)CO3 [AMG176] + C=CC(=O)N1CCN(c2nc(=O)n(-c3c(C)ccnc3C(C)C)c3nc(-c4c(O)cccc4F)c(F)cc23)[C@@H](C)C1 [sotorasib] | 17.3 | 2.13
2 | CC(=O)O[C@H]1C(=O)[C@@]2(C)[C@H]([C@H](OC(=O)c3ccccc3)[C@]3(O)C[C@H](OC(=O)[C@H](O)[C@@H](NC(=O)c4ccccc4)c4ccccc4)C(C)=C1C3(C)C)[C@]1(OC(C)=O)CO[C@@H]1C[C@@H]2O [Paclitaxel] + C=CC(=O)N1CCN(c2nc(=O)n(-c3c(C)ccnc3C(C)C)c3nc(-c4c(O)cccc4F)c(F)cc23)[C@@H](C)C1 [sotorasib] | 9.86 | 3.37
3 | N#CN=C(NCCCCCCOc1ccc(Cl)cc1)Nc1ccncc1 [GMX1778] + C=CC(=O)N1CCN(c2nc(=O)n(-c3c(C)ccnc3C(C)C)c3nc(-c4c(O)cccc4F)c(F)cc23)[C@@H](C)C1 [sotorasib] | -13.8 | 7.36
4 | CCOC(=O)CCNc1cc(N2CCc3ccccc3CC2)nc(-c2ccccn2)n1 [GSK-J4] + C=CC(=O)N1CCN(c2nc(=O)n(-c3c(C)ccnc3C(C)C)c3nc(-c4c(O)cccc4F)c(F)cc23)[C@@H](C)C1 [sotorasib] | -0.59 | -0.52
5 | NC(=O)c1cnc(N[C@@H]2CCCC[C@@H]2N)nc1Nc1cccc(-n2nccn2)c1 + C=CC(=O)N1CCN(c2nc(=O)n(-c3c(C)ccnc3C(C)C)c3nc(-c4c(O)cccc4F)c(F)cc23)[C@@H](C)C1 [sotorasib] | 7.42 | -0.31
6 | Cn1c(=O)n(-c2ccc(C(C)(C)C#N)cc2)c2c3cc(-c4cnc5ccccc5c4)ccc3ncc21 [NVP-BEZ235] + C=CC(=O)N1CCN(c2nc(=O)n(-c3c(C)ccnc3C(C)C)c3nc(-c4c(O)cccc4F)c(F)cc23)[C@@H](C)C1 [sotorasib] | 12 | 7.37
7 | CS(=O)(=O)c1ccc(-c2cnc(N)c(C(=O)Nc3ccccc3)n2)cc1 [VE-821] + C=CC(=O)N1CCN(c2nc(=O)n(-c3c(C)ccnc3C(C)C)c3nc(-c4c(O)cccc4F)c(F)cc23)[C@@H](C)C1 [sotorasib] | 6.24 | 6.3
8 | Nc1ncn([C@@H]2O[C@H](CO)[C@@H](O)[C@H]2O)c(=O)n1 [Azacitidine] + C=CC(=O)N1CCN(c2nc(=O)n(-c3c(C)ccnc3C(C)C)c3nc(-c4c(O)cccc4F)c(F)cc23)[C@@H](C)C1 [sotorasib] | 3.93 | 18.6
9 | Cc1cc(Nc2nc(N[C@@H](C)c3ncc(F)cn3)ncc2Cl)[nH]n1 [AZD-1480] + C=CC(=O)N1CCN(c2nc(=O)n(-c3c(C)ccnc3C(C)C)c3nc(-c4c(O)cccc4F)c(F)cc23)[C@@H](C)C1 [sotorasib] | 5.41 | -5.71
10 | CN(Cc1cnc2nc(N)nc(N)c2n1)c1ccc(C(=O)N[C@@H](CCC(=O)O)C(=O)O)cc1 [Methotrexate] + C=CC(=O)N1CCN(c2nc(=O)n(-c3c(C)ccnc3C(C)C)c3nc(-c4c(O)cccc4F)c(F)cc23)[C@@H](C)C1 [sotorasib] | -3.03 | -3.51
11 | CN[C@H]1CN(c2ccc3c(=O)c(C(=O)O)cn(-c4nccs4)c3n2)C[C@@H]1OC [Vosaroxin] + C=CC(=O)N1CCN(c2nc(=O)n(-c3c(C)ccnc3C(C)C)c3nc(-c4c(O)cccc4F)c(F)cc23)[C@@H](C)C1 [sotorasib] | 13.3 | 13.2
12 | On1ncc2cc(CCc3nn[nH]n3)ccc21 + C=CC(=O)N1CCN(c2nc(=O)n(-c3c(C)ccnc3C(C)C)c3nc(-c4c(O)cccc4F)c(F)cc23)[C@@H](C)C1 [sotorasib] | -2.12 | -12.1
13 | Nc1ccn([C@@H]2O[C@H](CO)[C@@H](O)[C@@H]2O)c(=O)n1 [Cytarabin] + C=CC(=O)N1CCN(c2nc(=O)n(-c3c(C)ccnc3C(C)C)c3nc(-c4c(O)cccc4F)c(F)cc23)[C@@H](C)C1 [sotorasib] | 5.6 | 8.17
14 | CC[C@]1(O)C[C@@H]2CN(CCc3c([nH]c4ccccc34)[C@@](C(=O)OC)(c3cc4c(cc3OC)N(C)[C@H]3[C@@](O)(C(=O)OC)[C@H](OC(C)=O)[C@]5(CC)C=CCN6CC[C@]43[C@@H]65)C2)C1 [Vinblastine] + C=CC(=O)N1CCN(c2nc(=O)n(-c3c(C)ccnc3C(C)C)c3nc(-c4c(O)cccc4F)c(F)cc23)[C@@H](C)C1 [sotorasib] | 6.11 | 8.44
15 | C[C@@H](Oc1cc(-c2cnn(C3CCNCC3)c2)cnc1N)c1c(Cl)ccc(F)c1Cl + C=CC(=O)N1CCN(c2nc(=O)n(-c3c(C)ccnc3C(C)C)c3nc(-c4c(O)cccc4F)c(F)cc23)[C@@H](C)C1 [sotorasib] | 2.31 | 13.5
16 | COc1cc(OC2CCN(C)CC2)ccc1Nc1ncc2c(n1)n(C1CCCC1)c(=O)n2C [AZ3146] + C=CC(=O)N1CCN(c2nc(=O)n(-c3c(C)ccnc3C(C)C)c3nc(-c4c(O)cccc4F)c(F)cc23)[C@@H](C)C1 [sotorasib] | 4.43 | 19.4
17 | COc1ccccc1-c1cc(Nc2cccc(CS(N)(=O)=O)c2)ncn1 [LDC-067] + C=CC(=O)N1CCN(c2nc(=O)n(-c3c(C)ccnc3C(C)C)c3nc(-c4c(O)cccc4F)c(F)cc23)[C@@H](C)C1 [sotorasib] | 5.31 | 11.1
18 | COc1ncc(-c2nc3c(n2C(C)C)[C@H](c2ccc(Cl)cc2)N(c2cc(Cl)cn(C)c2=O)C3=O)c(OC)n1 [HDM-201] + C=CC(=O)N1CCN(c2nc(=O)n(-c3c(C)ccnc3C(C)C)c3nc(-c4c(O)cccc4F)c(F)cc23)[C@@H](C)C1 [sotorasib] | 1.73 | 7.32
19 | CCC1=C[C@@H]2CN(C1)Cc1c([nH]c3ccccc13)[C@@](C(=O)OC)(c1cc3c(cc1OC)N(C)[C@H]1[C@@](O)(C(=O)OC)[C@H](OC(C)=O)[C@]4(CC)C=CCN5CC[C@]31[C@@H]54)C2 [Vinorelbine] + C=CC(=O)N1CCN(c2nc(=O)n(-c3c(C)ccnc3C(C)C)c3nc(-c4c(O)cccc4F)c(F)cc23)[C@@H](C)C1 [sotorasib] | 1.79 | 4.13
20 | CC(C)C[C@@H](C(=O)N[C@H](C(=O)OC1CCCC1)c1ccccc1)[C@H](O)C(=O)NO [Tosedostat] + C=CC(=O)N1CCN(c2nc(=O)n(-c3c(C)ccnc3C(C)C)c3nc(-c4c(O)cccc4F)c(F)cc23)[C@@H](C)C1 [sotorasib] | 10.4 | 31.5
21 | CC1=C(/C=C/C(C)=C/C=C/C(C)=C/C(=O)O)C(C)(C)CCC1 [Tretinoin] + C=CC(=O)N1CCN(c2nc(=O)n(-c3c(C)ccnc3C(C)C)c3nc(-c4c(O)cccc4F)c(F)cc23)[C@@H](C)C1 [sotorasib] | 10.5 | 15.7
22 | COc1ccc(Cn2ccc3ccc(C(=O)NO)cc32)cc1 + C=CC(=O)N1CCN(c2nc(=O)n(-c3c(C)ccnc3C(C)C)c3nc(-c4c(O)cccc4F)c(F)cc23)[C@@H](C)C1 [sotorasib] | 0.89 | 10.9
23 | N#CC[C@H](C1CCCC1)n1cc(-c2ncnc3[nH]ccc23)cn1 [Ruxolitinib] + C=CC(=O)N1CCN(c2nc(=O)n(-c3c(C)ccnc3C(C)C)c3nc(-c4c(O)cccc4F)c(F)cc23)[C@@H](C)C1 [sotorasib] | 4.05 | 6.8
24 | CC(C)(C)c1ccc(S(=O)(=O)NCc2ccc(C(=O)Nc3cccnc3)cc2)cc1 [STF-31] + C=CC(=O)N1CCN(c2nc(=O)n(-c3c(C)ccnc3C(C)C)c3nc(-c4c(O)cccc4F)c(F)cc23)[C@@H](C)C1 [sotorasib] | -10.2 | 17.6
25 | CCc1cnn2c(NCc3ccc[n+]([O-])c3)cc(N3CCCC[C@H]3CCO)nc12 + C=CC(=O)N1CCN(c2nc(=O)n(-c3c(C)ccnc3C(C)C)c3nc(-c4c(O)cccc4F)c(F)cc23)[C@@H](C)C1 [sotorasib] | 7.04 | 2.65
26 | COC(=O)c1ccc2c(c1)NC(=O)/C2=C(\Nc1ccc(N(C)C(=O)CN2CCN(C)CC2)cc1)c1ccccc1 [Nintedanib] + C=CC(=O)N1CCN(c2nc(=O)n(-c3c(C)ccnc3C(C)C)c3nc(-c4c(O)cccc4F)c(F)cc23)[C@@H](C)C1 [sotorasib] | 11.8 | 0.78
27 | Nc1ccn([C@@H]2O[C@H](CO)[C@@H](O)C2(F)F)c(=O)n1 [Gemcitabine] + C=CC(=O)N1CCN(c2nc(=O)n(-c3c(C)ccnc3C(C)C)c3nc(-c4c(O)cccc4F)c(F)cc23)[C@@H](C)C1 [sotorasib] | 3.14 | 1.12
28 | CC(=O)Nc1cccc(-n2c(=O)n(C3CC3)c(=O)c3c(Nc4ccc(I)cc4F)n(C)c(=O)c(C)c32)c1 [Trametinib] + C=CC(=O)N1CCN(c2nc(=O)n(-c3c(C)ccnc3C(C)C)c3nc(-c4c(O)cccc4F)c(F)cc23)[C@@H](C)C1 [sotorasib] | 14.2 | 14.5
29 | COc1cccc2c1C(=O)c1c(O)c3c(c(O)c1C2=O)C[C@@](O)(C(=O)CO)C[C@@H]3O[C@H]1C[C@H](N)[C@H](O)[C@H](C)O1 [Doxorubicin] + C=CC(=O)N1CCN(c2nc(=O)n(-c3c(C)ccnc3C(C)C)c3nc(-c4c(O)cccc4F)c(F)cc23)[C@@H](C)C1 [sotorasib] | 11.1 | 11

From the supplement of paper PMC11424490
